Measured values: PubChem BioAssay (NCI)
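48-hour exposure; five concentrations; linearly interpolated endpoints. The concentration for 50% growth inhibition is given as GI50. TGI: total growth inhibition.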

What was measured:
Test in all cases: NCI anticancer screen, dose series, 48 h
[1] = test system: UO-31 renal
[2] = test system: UACC-257 melanoma
[3] = test system: MALME-3M melanoma
[4] = test system: HOP-92 NSCLC
[5] = test system: SF-295 CNS
[6] = test system: MOLT-4 leukemia
[7] = test system: LOX IMVI melanoma
[8] = test system: A498 renal
[9] = test system: OVCAR-8 ovarian
[10] = test system: EKVX NSCLC

SMILES	GI50 [1] [µM]	TGI [1] [µM]	GI50 [2] [µM]	TGI [2] [µM]	GI50 [3] [µM]	TGI [3] [µM]	GI50 [4] [µM]	TGI [4] [µM]	GI50 [5] [µM]	TGI [5] [µM]	GI50 [6] [µM]	TGI [6] [µM]	GI50 [7] [µM]	TGI [7] [µM]	GI50 [8] [µM]	TGI [8] [µM]	GI50 [9] [µM]	TGI [9] [µM]	GI50 [10] [µM]	TGI [10] [µM]
Cc1ccc(Nc2cc(C)nc(NCCCNc3ccnc4cc(Cl)ccc34)n2)cc1	1.43	2.87	1.74	3.22	1.82	3.74	1.16	2.89	1.51	2.92	2.01	6.67	1.38	2.83	1.06	2.4	1.67	3.25	–	–
O=C(CCSc1ccnc2c(C(F)(F)F)cccc12)N/N=C/c1cc(Cl)c(Cl)cc1Cl	20.6	49.2	83.5	> 100	50.1	> 100	16.3	34.3	26.4	62.3	32.2	98.8	17.8	31.8	–	–	32.5	86	38.1	> 100
Nc1nccc2c1ncn2C1OC(CO)C(O)C1O (centres undefined)	28.8	> 100	> 100	> 100	> 100	> 100	92.2	> 100	> 100	> 100	> 100	> 100	94.1	> 100	–	–	91.5	> 100	> 100	> 100
CCOC(=O)N1C(c2ccccc2)C=CC(c2ccccc2)N1C(=O)OCC (centres undefined)	–	–	–	> 100	–	> 100	–	> 100	–	> 100	–	–	–	> 100	–	> 100	–	> 100	–	> 100
O=C(O)c1ccccc1N=Nc1ccc2oc(=O)c(C(=O)Nc3ccccc3)cc2c1	–	> 100	–	59.4	–	70.3	–	–	–	> 100	–	> 100	–	> 100	–	–	–	> 100	–	> 100
N#Cc1ccc(Oc2cccc(Oc3ccccc3)c2)cc1C#N	–	61.6	–	–	> 100	> 100	> 100	> 100	–	> 100	–	> 100	–	–	–	> 100	> 100	> 100	–	> 100
Cc1cc(N(CCCNc2ccnc3cc(Cl)ccc23)Cc2ccc3c(c2)OCO3)nc(N2CCCCC2)n1	1.25	2.82	2.2	4.22	1.97	3.75	1.12	3.49	1.59	3.39	–	–	1.69	3.29	2.14	5.11	2.1	4.95	2.56	38
